The text below walks through data of US12195467B2, “Compound having TrkA inhibitory activity and pharmaceutical composition, for preventing or alleviating pain, containing same as active ingredient” (JBKLAB CO., LTD., priority 2018, dated 2025).

As usually defined, the ED50 is the midpoint of the dose-response relation. One may read the inhibition as the change of the read-out against control, counted positive when it falls. By IC50 is commonly meant the concentration that gives 50% inhibition. A low value points to greater potency in that assay.

For assay [1], the system named is postoperative pain animal model. In words: Pharmacological activity in postoperative pain model (von-Frey mechanical allodynia, 50% withdrawal threshold). In kind it is in vivo, Sprague-Dawley male rats. Conditions: oral, rat postoperative pain model, 2 days after surgery; for ED50: 48 h, read-out: ED50. The procedure: Sprague-Dawley male rats weighing around 150 g (Orient bio., Korea) were used. Rats were raised in an environment where a 12-hour light-dark cycle was maintained, 4 per transparent plastic cage covered with scob as bedding. Food and water were provided freely. To verify the analgesic effect of the example compounds, all rats were anesthetized with O2 delivered from the induction chamber at a ratio of 3:3 of isoflurane and operated. Anesthetized rats were placed on a 37° C. warm plate to prevent hypothermia during the operation. The ipsilateral sole (left) of the hind paw of the experimental animal was disinfected with 10% povidone-iodine solution, and incised to a length of 1 cm with a #11 surgical knife. The incision was made starting from 0.5 cm of the proximal edge of the heel through the skin and fascia on the side of the ipsilateral sole toward the toe. After the incision, a gentle pressure was applied to the incision site to stop the bleeding and the skin was sutured. The surgical site was sterilized with 10% povidone-iodine solution, and gentamicin (8 mg/kg) was administered intraperitoneally to prevent infection. The analgesic effect of the compound on postoperative pain was evaluated in the experimental animals 2 days after the surgery. […] The formula for calculating the 50% withdrawal threshold (g) is as follows. 50% Withdrawal threshold (g)=(10^(x+kd))/10^4 [Mathematical Formula 1] • x=the value of the last tested filament (log unit value). • k=the value indicating positive/negative reaction by up-down method. • d=the value fixed at 0.224 as the average difference between stimuli.

In a further assay the target is T1, TrkB (Homo sapiens, UniProt Q16620).
T1 construct: host or cells: U2OS
The assay is described as follows: PathHunter eXpress TrkB functional assay kit (U2OS cells, agonist BDNF). In kind it is cell-based. Conditions: for inhibition at 1 µM: compound 1 μM, read-out: TrkB % inhibition rate (based on 1 μM). How it is done: (§1) The inhibitory activity of the example compounds against TrkB and TrkC was evaluated using PathHunter® eXpress TrkB or TrkC functional assay kit (Product Code: 93-0463E3 and 93-0464E3) of DiscoverX. The test was carried out according to the analysis method provided by the manufacturer. The test was carried out as follows over 2 or 3 days depending on the conditions of cells.
(§2) 1. Before starting the experiment, the cell plating (CP) reagent stored at −80° C. was dissolved in a 37° C. water bath.
(§3) 2. When the CP reagent was dissolved, cell vials for TrkB or TrkC were prepared to be dissolved.
(§4) 3. Two U2OS cell vials (TrkB kit & TrkC kit) stored in liquid nitrogen were thawed.
(§5) 4. 500 μL of CP reagent was added to the thawed cell vial, and the cells were sufficiently mixed by pipetting and transferred to a Conical tube in which 11.5 mL of CP reagent was dispensed.
(§6) 5. 12 mL cells (1×10^6 cells in CP reagent) were seeded on a 96-well tissue culture treated plate (100 μL/well), followed by culture in a 37° C., 5% CO2 humidified incubator for 24 hours or 48 hours.
(§7) Day 2 or Day 3: Treatment of Test Material
(§8) 1. Test material, agonist and antagonist were prepared as stock solutions according to the experiment design. • Test material: 10 mM Stock solution in DMSO • Antagonist (GNF-5837): 10 mM Stock solution in 1.8674 mL DMSO • Agonist: TrkB agonist→BDNF, TrkC agonist→NT-3
(§9) 2. 10 mM stock solutions of teat material and antagonist having the concentration of 22 times more concentrated than the final screening concentration were prepared according to the experiment design.
(§10) 3. Each well of the 96-well culture plate containing cells was treated with 5 μL of the solutions of teat material and antagonist having the concentration of 22 times more concentrated than the final screening concentration (#2), followed by incubation at 37° C. for 60 minutes.
(§11) 4. During the incubation, 10 μg/mL stock solution of each agonist for TrkB and TrkC was prepared using a reconstitution buffer for the purpose of the experiment, and each well of the plate was treated with 5 μL of the prepared solution, followed by incubation at 19-25° C. for 3 hours.
(§12) 5. During the incubation, a detection reagent working solution (4.75 ml Cell assay buffer, 1.25 ml Substrate Reagent 1, 0.25 ml Substrate Reagent 2) was prepared. Upon completion of the incubation, 55 μL of the working solution was added into each well of the plate.
(§13) 7. The plate was incubated at room temperature for 60 minutes in a dark place, and the […] was measured with a luminescence plate reader.

The target in another assay is T2, TrkA (Homo sapiens, UniProt P04629).
T2 construct: purchased MBL International (CycLex) CY-1091
The assay is described as follows: TrkA inhibitory activity, CycLex TrkA kinase assay/inhibitor screening kit. In kind it is biochemical. The note with it: for inhibition at 1 µM: compound 1 μM, read-out: % inhibition rate (based on 1 μM). How it is done:
The TrkA inhibitory activity of the compounds was evaluated using CycLex® TrkA kinase assay/inhibitor screening kit of MBL International (Cat No. CY-1091). The test was carried out according to the analysis method provided by the manufacturer. The test method is as follows.
1. 1× wash buffer was prepared by diluting 10× wash buffer in ddH2O.
2. 20×ATP solution (1.25 mM) was prepared by adding 1.6 mL of distilled water to the tube containing ATP dissolved in NA2 salt and freeze-dried.
4. A working solution mixture and a solution of the appropriate concentration of the example compound to evaluate the activity of the example compound were prepared and dispensed into a 96-well plate as shown in table below.
5. After dispensing the solutions into a 96-well plate, the plate was incubated at 30° C. for 30 minutes.
6. After incubation of the plate at 30° C. for 30 minutes, 200 μL of 1× wash buffer was added into each well of the plate, followed by washing. This process was repeated 5 times.
7. After washing the plate, 100 μL of HRP conjugated detection antibody (PX-39) was added into each well of the plate, followed by reaction at room temperature for 60 minutes.
8. Upon completion of the reaction, 200 μL of 1× wash buffer was added into each well of the plate, followed by washing. This process was repeated 5 times.
9. After washing the plate, 100 μL of substrate reagent containing chromogenic substrate and tetra-methylbenzidine (TMB) was added into each well of the plate, followed by incubation at room temperature for 5-15 minutes.
10. Upon completion of the reaction, 100 μL of stop solution (1 N H2SO4) was added into each well of the plate, followed by measuring OD450 within 30 minutes.

The next assay has as its target T3, TrkC (Homo sapiens, UniProt Q16288).
T3 construct: host or cells: U2OS
In words: PathHunter eXpress TrkC functional assay kit (U2OS cells, agonist NT-3). Type of assay: cell-based. The note with it: for inhibition at 1 µM: compound 1 μM, read-out: TrkC % inhibition rate (based on 1 μM). How it is done:
as §1, §2, §3, §4, §5, §6, §7, §8, §9, §10, §11, §12, §13

T2 sequence (P04629 33-796): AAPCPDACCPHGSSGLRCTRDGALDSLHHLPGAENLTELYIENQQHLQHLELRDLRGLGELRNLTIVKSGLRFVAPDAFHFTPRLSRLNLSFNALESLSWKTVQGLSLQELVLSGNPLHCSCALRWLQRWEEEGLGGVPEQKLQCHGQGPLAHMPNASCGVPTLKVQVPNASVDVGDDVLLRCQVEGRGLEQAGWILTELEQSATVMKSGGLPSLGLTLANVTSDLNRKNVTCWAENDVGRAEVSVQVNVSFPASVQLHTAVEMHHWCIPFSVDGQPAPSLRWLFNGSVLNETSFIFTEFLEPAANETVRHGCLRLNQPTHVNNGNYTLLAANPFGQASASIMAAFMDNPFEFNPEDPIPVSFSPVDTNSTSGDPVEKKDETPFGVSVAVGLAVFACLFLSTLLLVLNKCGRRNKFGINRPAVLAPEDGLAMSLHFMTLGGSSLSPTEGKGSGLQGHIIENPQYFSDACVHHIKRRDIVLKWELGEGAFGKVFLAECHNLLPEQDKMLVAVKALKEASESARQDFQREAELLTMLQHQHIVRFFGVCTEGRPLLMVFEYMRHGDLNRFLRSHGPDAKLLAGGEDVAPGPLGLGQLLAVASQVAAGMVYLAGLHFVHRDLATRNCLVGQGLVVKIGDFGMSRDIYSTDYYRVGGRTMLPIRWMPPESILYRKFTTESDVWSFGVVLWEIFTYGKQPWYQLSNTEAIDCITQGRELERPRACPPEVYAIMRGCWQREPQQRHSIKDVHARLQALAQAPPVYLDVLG
T3 sequence (Q16288 32-839): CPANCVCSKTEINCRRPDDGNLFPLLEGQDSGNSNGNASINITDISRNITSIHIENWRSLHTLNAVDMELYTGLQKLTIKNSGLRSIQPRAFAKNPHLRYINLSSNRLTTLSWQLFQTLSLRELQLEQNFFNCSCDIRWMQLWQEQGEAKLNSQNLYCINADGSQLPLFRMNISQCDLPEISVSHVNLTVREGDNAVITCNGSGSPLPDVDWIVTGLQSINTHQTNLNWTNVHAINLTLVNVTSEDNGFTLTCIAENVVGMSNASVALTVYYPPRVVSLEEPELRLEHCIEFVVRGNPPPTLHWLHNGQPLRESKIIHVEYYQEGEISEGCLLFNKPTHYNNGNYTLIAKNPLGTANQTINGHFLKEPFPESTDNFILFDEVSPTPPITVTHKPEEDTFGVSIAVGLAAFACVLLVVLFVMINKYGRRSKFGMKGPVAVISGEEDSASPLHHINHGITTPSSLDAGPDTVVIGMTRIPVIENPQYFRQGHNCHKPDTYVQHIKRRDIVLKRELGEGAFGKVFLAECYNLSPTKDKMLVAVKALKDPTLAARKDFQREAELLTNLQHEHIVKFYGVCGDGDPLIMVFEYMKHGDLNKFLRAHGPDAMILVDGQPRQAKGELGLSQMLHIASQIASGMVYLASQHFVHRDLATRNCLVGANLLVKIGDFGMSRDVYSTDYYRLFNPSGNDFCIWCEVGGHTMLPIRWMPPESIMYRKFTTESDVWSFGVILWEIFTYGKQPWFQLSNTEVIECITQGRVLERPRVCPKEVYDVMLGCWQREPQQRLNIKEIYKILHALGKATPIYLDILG
T1 sequence (Q16620 32-822): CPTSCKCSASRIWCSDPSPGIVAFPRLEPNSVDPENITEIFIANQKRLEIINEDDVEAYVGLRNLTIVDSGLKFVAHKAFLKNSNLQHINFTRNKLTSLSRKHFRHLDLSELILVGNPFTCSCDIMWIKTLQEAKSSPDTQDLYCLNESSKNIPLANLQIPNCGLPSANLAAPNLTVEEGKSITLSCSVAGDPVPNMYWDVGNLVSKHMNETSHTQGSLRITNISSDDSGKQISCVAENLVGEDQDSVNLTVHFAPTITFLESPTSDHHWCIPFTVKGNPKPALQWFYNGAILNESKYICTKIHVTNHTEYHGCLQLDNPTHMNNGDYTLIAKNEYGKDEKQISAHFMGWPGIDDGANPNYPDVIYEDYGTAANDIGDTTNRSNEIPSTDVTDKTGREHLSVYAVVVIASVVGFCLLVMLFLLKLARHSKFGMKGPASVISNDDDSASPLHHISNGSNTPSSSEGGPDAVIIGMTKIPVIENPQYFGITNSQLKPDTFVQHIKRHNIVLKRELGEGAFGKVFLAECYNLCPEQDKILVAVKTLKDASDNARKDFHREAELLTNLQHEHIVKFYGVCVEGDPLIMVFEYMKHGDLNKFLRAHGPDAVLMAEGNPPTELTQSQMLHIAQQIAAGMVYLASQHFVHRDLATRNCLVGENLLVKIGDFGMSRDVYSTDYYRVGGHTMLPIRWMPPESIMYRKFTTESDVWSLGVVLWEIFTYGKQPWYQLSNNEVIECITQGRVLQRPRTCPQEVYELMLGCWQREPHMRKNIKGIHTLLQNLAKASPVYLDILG

Consider `CN1CCN(c2ccc(C(=O)Nc3n[nH]c4ncc(-c5ccccc5)cc34)cc2)CC1` [Example 10, 4-(4-methylpiperazine-1-yl)-N-(5-phenyl-1H-pyrazolo[3,4-b]pyridine-3-yl)benzamide], for which, in assay [1], the ED50 turned out to be 3.8 mg/kg and the “Maximum duration of drug efficacy” value turned out to be 0.5 h. In addition, the inhibition at 1 µM on TrkB worked out at 27%. On TrkA, the IC50 was 213 nM and the inhibition at 1 µM was 98%. For the same compound, at TrkC, the IC50 was determined as 1070 nM and the inhibition at 1 µM came to 49%.
With `CN1CCN(c2ccc(C(=O)Nc3n[nH]c4ncc(-c5ccncc5)cc34)cc2)CC1` [Example 13, 4-(4-methylpiperazine-1-yl)-N-(5-(pyridine-4-yl)-1H-pyrazolo[3,4-b]pyridine-3-yl)benzamide], in assay [1], the ED50 came out at 11.5 mg/kg and the “Maximum duration of drug efficacy” value stood at 1.0 h. Besides, at TrkB, the inhibition at 1 µM is -1%. Moreover, on TrkA, the IC50 was determined as 179 nM and the inhibition at 1 µM stood at 99%. For the same compound, the inhibition at 1 µM at TrkC turned out to be 0%.
In the case of `CN1CCN(c2ccc(C(=O)Nc3n[nH]c4ncc(Br)cc34)cc2)CC1` [Example 14, N-(5-bromo-1H-pyrazolo[3,4-b]pyridine-3-yl)-4-(4-methylpiperazine-1-yl)benzamide], the ED50 in assay [1] came out at 3.8 mg/kg. Moreover, the “Maximum duration of drug efficacy” value in assay [1] turned out to be 0.5 h. For the same compound, the figures for the inhibition at 1 µM on TrkB, at TrkA and at TrkC were -8%, 101% and -20%, respectively. Also, at TrkA, the IC50 came out at 122 nM.
Regarding `Oc1c(Cl)cc(-c2c[nH]c3ncnc(-c4cnn(C5CCNCC5)c4)c23)cc1Cl` [Example 15, 2,6-dichloro-4-(4-(1-(piperidine-4-yl)-1H-pyrazole-4-yl)-7H-pyrrolo[2,3-d]pyrimidine-5-yl)phenol], the median effective dose (ED50) in assay [1] worked out at 20.1 mg/kg. Also, the “Maximum duration of drug efficacy” value in assay [1] worked out at 0.5 h. Further, the results for the inhibition at 1 µM at TrkB, at TrkA and at TrkC were 4%, 95% and -16%, respectively.
Consider `Oc1c(Cl)cc(-c2c[nH]c3ncnc(NC4CCC(O)CC4)c23)cc1Cl` (centres unmarked) [Example 23, 2,6-dichloro-4-(4-((1s,4s)-4-hydroxycyclohexylamino)-7H-pyrrolo[2,3-d]pyrimidine-5-yl)phenol], for which the half-maximal inhibitory concentration (IC50) on TrkB was found to be 894 nM; against TrkA, 57.9 nM. Further, the inhibition at 1 µM at TrkB worked out at 56%; on TrkA, 100%; on TrkC, 15%.
